Measured values taken from patent US20060094059A1, “Methods for identifying new drug leads and new therapeutic uses for known drugs” (Odyssey Thera, Inc., priority 2004, published 2006).

How the values were obtained:
Type in all cases: cell-based, human
Cofilin:LIMK2 = experiment: Protein-fragment complementation assay Cofilin:LIMK2; conditions: hit in Cofilin/LIMK2 assay; drugs screened at 10 micromolar
Description: (§1) To construct dynamic assays for protein-protein complexes, we used a protein-fragment complementation assay strategy (PCAs) in intact human cells. (A variety of other suitable assays, and reporter options, are described in detail below.) The principle of PCA is that complementary polypeptide fragments (F[1] and F[2]) of a reporter protein or enzyme will fold into an active form only if fused to two proteins which interact and bring the complementary fragments of the reporter protein into proximity. Reconstitution of the fragments of the reporter protein generates a fluorescent signal that can be quantified in intact cells, and the amount of the signal is proportional to the amount of the protein-protein complex used in constructing the assay. Given a suitable reporter type, the subcellular location of the complex can also be measured.
(§2) Reporter fragments for PCA were generated by oligonucleotide synthesis (Blue Heron Biotechnology, Bothell, Wash.), starting with the sequence of yellow fluorescent protein (YFP). First, oligonucleotides coding for polypeptide fragments YFP[1]and YFP[2] […] Next, PCR mutagenesis was used to generate the mutant fragments IFP[1] and IFP[2]. The IFP[1] fragment corresponds to YFP[1]-(F46L, F64L, M153T) and the IFP[2] fragment corresponds to YFP[2]-(V163A, S175G). […]

[1] = tested on: phospho-ERK (MAPK) in the presence of VEGF; experiment: Immunofluorescence assay phospho-ERK + VEGF; conditions: FIG. 3G, compared with the vehicle alone
Experimental: Immunofluorescence was performed on drug-treated cells to assess the post-translational modification status of proteins involved in the pathways of interest. We constructed assays designed to measure the phosphorylation status of key signaling proteins in the absence and presence of a growth factor stimulus. A drug capable of blocking or inhibiting the pathway leading to the signaling protein would in principle cause a decrease in the phosphorylation of that signaling protein in response to the selected growth factor. Such a change in phosphorylation status could be measured by a decrease in fluorescence in the presence of the drug. […]
HEK293T cells were seeded at a density of 7,500/well in poly-D-lys coated, blackwalled 96 well plate (Greiner). […] Phosphorylated ERK was detected by incubating the fixed cells with rabbit phospho-ERK (T202/Y204)-specific antibodies (Cell Signaling Technologies) followed by Alexa488 conjugated goat anti-rabbit antibody (Molecular Probes). […] Fluorescence images were acquired on a Discovery-1 imaging station (Molecular Devices) as described above.
Background fluorescence due to nonspecific binding by the secondary antibody was established with the use of cells that were incubated with BSA/PBS and without primary antibodies. […]

PIN1:JUN complexes = experiment: Protein-fragment complementation assay PIN1:JUN
Description: as §1, §2

SMILES: O=C(Nc1ccc([N+](=O)[O-])cc1Cl)c1cc(Cl)ccc1O [Niclosamide]
- Assay activity (Cofilin:LIMK2): Cofilin/LIMK2,
- level of phospho-ERK (intensity of the fluorescence) [1]: decrease in the level of phospho-ERK
- level of PIN1:JUN complexes (intensity of the fluorescence) (PIN1:JUN complexes; FIG. 3A): decrease in the level
- Assay activity (PIN1:JUN complexes; hit in PIN1/JUN assay, drugs screened at 10 micromolar): PIN1/JUN,
